Results on 15 molecules are retold here after patent publication US20140137294A1, “GLUCOSINOLATE TRANSPORTER PROTEIN AND USES THEREOF” (UNIVERSITY OF COPENHAGEN, priority 2010, published 2014).

T1: AtGTR1 (Arabidopsis thaliana, UniProt Q944G5)
T1 construct: A library of Arabidopsis transporters available as full length cDNAs from the RIKEN bioresource center; expressed in transfected cells; host or cells: Xenopus oocytes injected with in vitro transcribed cRNA
T1 sequence (Q944G5 31-636 limits assumed): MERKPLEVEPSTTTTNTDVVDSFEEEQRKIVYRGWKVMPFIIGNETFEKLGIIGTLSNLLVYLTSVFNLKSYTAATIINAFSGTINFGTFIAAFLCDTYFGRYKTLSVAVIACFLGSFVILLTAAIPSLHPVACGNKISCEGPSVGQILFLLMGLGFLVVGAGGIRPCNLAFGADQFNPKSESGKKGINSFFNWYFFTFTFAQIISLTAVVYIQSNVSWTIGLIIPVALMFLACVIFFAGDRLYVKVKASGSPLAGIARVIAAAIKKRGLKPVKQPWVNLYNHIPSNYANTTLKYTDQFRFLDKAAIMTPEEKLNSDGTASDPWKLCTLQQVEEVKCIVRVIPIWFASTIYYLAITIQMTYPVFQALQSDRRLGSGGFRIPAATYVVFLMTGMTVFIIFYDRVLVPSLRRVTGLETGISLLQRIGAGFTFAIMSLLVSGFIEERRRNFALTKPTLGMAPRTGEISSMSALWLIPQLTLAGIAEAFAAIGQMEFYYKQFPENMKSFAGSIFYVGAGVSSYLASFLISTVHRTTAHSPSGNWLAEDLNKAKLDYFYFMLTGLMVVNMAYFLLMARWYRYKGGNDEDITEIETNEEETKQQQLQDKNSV

T2: AtGTR2 (Arabidopsis thaliana, UniProt Q9LV10)
T2 construct: expressed in transfected cells; host or cells: Xenopus oocytes injected with in vitro transcribed cRNA (vector pNB1u)
T2 sequence (Q9LV10 1-616): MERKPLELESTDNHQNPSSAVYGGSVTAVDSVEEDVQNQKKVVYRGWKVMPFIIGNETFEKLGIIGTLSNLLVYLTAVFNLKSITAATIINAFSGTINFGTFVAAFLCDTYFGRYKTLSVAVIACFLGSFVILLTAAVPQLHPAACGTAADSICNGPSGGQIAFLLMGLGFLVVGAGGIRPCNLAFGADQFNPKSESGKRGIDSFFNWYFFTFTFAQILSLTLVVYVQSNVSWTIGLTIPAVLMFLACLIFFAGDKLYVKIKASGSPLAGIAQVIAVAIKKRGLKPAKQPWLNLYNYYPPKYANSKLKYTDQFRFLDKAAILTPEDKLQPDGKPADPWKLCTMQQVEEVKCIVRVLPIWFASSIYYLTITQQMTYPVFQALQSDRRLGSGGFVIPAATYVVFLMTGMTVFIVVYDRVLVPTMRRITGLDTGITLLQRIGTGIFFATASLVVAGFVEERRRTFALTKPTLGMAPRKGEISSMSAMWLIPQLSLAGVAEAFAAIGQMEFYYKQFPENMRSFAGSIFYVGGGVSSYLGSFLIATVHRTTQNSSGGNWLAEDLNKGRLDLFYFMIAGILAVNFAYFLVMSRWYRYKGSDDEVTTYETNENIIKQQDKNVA

B1: GTR1 S22A: GTR1 of SEQ ID NO: 2 with S at position 22 for A, mimicking dephosphorylation (protein, listed as Arabidopsis thaliana)
chain: T1 sequence (Q944G5 31-636 limits assumed) with S22A
B2: GTR1 T105A: GTR1 of SEQ ID NO: 2 with T at position 105 for A (protein, listed as Arabidopsis thaliana)
chain: T1 sequence (Q944G5 31-636 limits assumed) with T105A
B3: GTR1 T105D: GTR1 of SEQ ID NO: 2 with T at position 105 for D (protein, listed as Arabidopsis thaliana)
chain: T1 sequence (Q944G5 31-636 limits assumed) with T105D
B4: GTR1 S22D: GTR1 of SEQ ID NO: 2 with S at position 22 for D, mimicking phosphorylation (protein, listed as Arabidopsis thaliana)
chain: T1 sequence (Q944G5 31-636 limits assumed) with S22D
B5: GTR2 T58A: GTR2 of SEQ ID No: 4 with T at position 58 for A (protein, listed as Arabidopsis thaliana)
chain: T2 sequence (Q9LV10 1-616) with T58A
B6: GTR2 T117D: GTR2 of SEQ ID No: 4 with T at position 117 for D (protein, listed as Arabidopsis thaliana)
chain: T2 sequence (Q9LV10 1-616) with T117D
B7: GTR2 T58D: GTR2 of SEQ ID No: 4 with T at position 58 for D (protein, listed as Arabidopsis thaliana)
chain: T2 sequence (Q9LV10 1-616) with T58D
B8: GTR2 T117A: GTR2 of SEQ ID No: 4 with T at position 117 for A (protein, listed as Arabidopsis thaliana)
chain: T2 sequence (Q9LV10 1-616) with T117A

Residue numbers refer to the chain shown, from its start. Names and notes keep the numbering of the source. Where a SMILES comes first, the peptide text is derived from it.

One test concerns the target T1, AtGTR1. Kind of test: Substrate-induced currents in voltage-clamped Xenopus oocytes expressing AtGTR1. It is filed as cell-based. The settings on record: 100 μM substrate, pH 5, voltage clamped at −50 mV, AtGTR1.
The molecule `C[S+]([O-])CCCC/C(=N/OS(=O)(=O)O)S[C@@H]1O[C@H](CO)[C@@H](O)[C@H](O)[C@H]1O` (stereo partly shown) yielded an inward current of approximately 10 nA.

The test is the same for the next values; noted with them: 133 μM, pH 5, AtGTR1.
As for `NCC(=O)NCC(=O)NCC(=O)O` [gly-gly-gly] (H-Gly-Gly-Gly-OH), the currents on perfusion result is “did not result in any detectable currents”.

Regarding `C[C@H](N)C(=O)N[C@@H](Cc1cnc[nH]1)C(=O)O` [ala-his] (H-Ala-His-OH), the currents on perfusion result is listed as “did not result in any detectable currents”.

Take `CC(C)C[C@H](NC(=O)CN)C(=O)O` [gly-leu]: the currents on perfusion result is “did not result in any detectable currents”.

As for `CC(NC(=O)C(N)CC(=O)O)C(=O)O` (stereo not shown) [asp-ala], the currents on perfusion entry is on record as “did not result in any detectable currents”.

As to `CSCC[C@H](N)C(=O)N[C@@H](C)C(=O)N[C@@H](CO)C(=O)O` [met-ala-ser] (H-Met-Ala-Ser-OH), the currents on perfusion entry is “did not result in any detectable currents”.

In a further test the target is T2, AtGTR2. Kind of test: Glucosinolate uptake by AtGTR2 expressing oocytes, LC-MS analysis of oocyte extracts. It is filed as cell-based. The settings on record: data not shown.
Take `O=S(=O)(O)O/N=C(\Cc1ccc(O)cc1)S[C@@H]1O[C@H](CO)[C@@H](O)[C@H](O)[C@H]1O` [pOHBG, p-hydroxybenzyl-GSL]: the “uptake by AtGTR2 measured by LC-MS analysis of oocyte extracts” value is “took up”.

Consider `C[S+]([O-])CCCC/C(=N/OS(=O)(=O)O)S[C@@H]1O[C@H](CO)[C@@H](O)[C@H](O)[C@H]1O` (stereo partly shown), for which the “uptake by AtGTR2 measured by LC-MS analysis of oocyte extracts” value was “took up”.

A further test deals with Xenopus oocytes. Kind of test: 4-MTB import by phosphorylation/dephosphorylation mimicking GTR1 and GTR2 constructs in oocytes (LC-MS). The settings on record: 100 μM 4-MTB, Kulori pH 5, one hour. It is filed as cell-based.
For B1, the 4-MTB transport activity entry is “turns of f transport completely”.

As for B2, the 4-MTB transport activity result is “block the transport activity”.

B3: the 4-MTB transport activity result was “block the transport activity”.

As for B4, the 4-MTB transport activity result was “keeps the import intact”.

B5: the 4-MTB transport activity result is “keeps the transport activity intact”.

In the case of B6, the 4-MTB transport activity result is given as “block the transport activity”.

For B7, the 4-MTB transport activity entry is on record as “inactivates the transport”.

In the case of B8, the 4-MTB transport activity entry was “block the transport activity”.
